According to PubChem BioAssay (NCI):
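The compound was tested at five concentrations on cells cultured in 96-well plates, with a 48-hour exposure period. Here, GI50 denotes the concentration required for 50% inhibition of growth. TGI marks complete inhibition of growth.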

Experiments:
Test in all cases: growth of human tumour cells (NCI), 48 h
[1] = system: SN12C renal
[2] = system: HCT-15 colon
[3] = system: OVCAR-3 ovarian
[4] = system: UACC-62 melanoma
[5] = system: K-562 leukemia
[6] = system: RPMI-8226 leukemia
[7] = system: PC-3 prostate
[8] = system: MDA-MB-231 breast
[9] = system: NCI/ADR-RES ovarian
[10] = system: A549 NSCLC
[11] = system: MOLT-4 leukemia
[12] = system: NCI-H460 lung
[13] = system: SF-295 CNS
[14] = system: SF-539 CNS
[15] = system: DU-145 prostate
[16] = system: OVCAR-5 ovarian
[17] = system: LOX IMVI melanoma
[18] = system: SK-MEL-5 melanoma
[19] = system: RXF 393 renal
[20] = system: A498 renal
[21] = system: CAKI-1 renal
[22] = system: NCI-H522 lung
[23] = system: OVCAR-4 ovarian
[24] = system: MALME-3M melanoma
[25] = system: HOP-92 NSCLC
[26] = system: TK-10 renal
[27] = system: MCF7 breast
[28] = system: KM12 colon
[29] = system: CCRF-CEM leukemia
[30] = system: UO-31 renal
[31] = system: EKVX NSCLC
[32] = system: SK-MEL-28 melanoma
[33] = system: SNB-75 CNS
[34] = system: SK-OV-3 ovarian
[35] = system: SNB-19 CNS
[36] = system: SR leukemia
[37] = system: NCI-H23 lung
[38] = system: COLO 205 colon
[39] = system: IGROV1 ovarian
[40] = system: SK-MEL-2 melanoma
[41] = system: MDA-MB-435
[42] = system: SW-620 colon
[43] = system: T-47D breast
[44] = system: SF-268 CNS
[45] = system: U251 CNS
[46] = system: HCC-2998 colon
[47] = system: HT29 colon
[48] = system: HS 578T breast
[49] = system: HL-60(TB) leukemia
[50] = system: UACC-257 melanoma
[51] = system: ACHN renal
[52] = system: OVCAR-8 ovarian
[53] = system: HOP-62 NSCLC
[54] = system: HCT-116 colon
[55] = system: BT-549 breast
[56] = system: NCI-H226 lung

Structure (SMILES): Cc1cc(O)c(C(C)(C)C)cc1Sc1cc(C(C)(C)C)c(O)cc1C
- GI50 [1]: 2.91 µM
- TGI [1]: > 100 µM
- GI50 [2]: 2.96 µM
- TGI [2]: 11.8 µM
- GI50 [3]: 2.23 µM
- TGI [3]: 5.45 µM
- GI50 [4]: 1.32 µM
- TGI [4]: 3.11 µM
- GI50 [5]: 1.95 µM
- TGI [5]: 5.4 µM
- GI50 [6]: 2.97 µM
- TGI [6]: 15.8 µM
- GI50 [7]: 2.77 µM
- TGI [7]: 10.6 µM
- GI50 [8]: 2.16 µM
- TGI [8]: 5.06 µM
- GI50 [9]: 2.78 µM
- TGI [9]: 7.58 µM
- GI50 [10]: 3.1 µM
- TGI [10]: 10.3 µM
- GI50 [11]: 2.67 µM
- TGI [11]: 8.07 µM
- GI50 [12]: 2.89 µM
- TGI [12]: 7.33 µM
- GI50 [13]: 2.32 µM
- TGI [13]: 5.61 µM
- GI50 [14]: 2.77 µM
- TGI [14]: 9 µM
- GI50 [15]: 3.69 µM
- TGI [15]: 13.2 µM
- GI50 [16]: 1.93 µM
- TGI [16]: 4 µM
- GI50 [17]: 1.97 µM
- TGI [17]: 3.64 µM
- GI50 [18]: 1.58 µM
- TGI [18]: 3.02 µM
- GI50 [19]: 1.82 µM
- TGI [19]: 3.39 µM
- GI50 [20]: 2.21 µM
- TGI [20]: 6.29 µM
- GI50 [21]: 2.07 µM
- TGI [21]: 6.62 µM
- GI50 [22]: 2.73 µM
- TGI [22]: 5.62 µM
- GI50 [23]: 3.16 µM
- TGI [23]: 12.5 µM
- GI50 [24]: 2.32 µM
- TGI [24]: 5.71 µM
- GI50 [25]: 2.49 µM
- TGI [25]: 6.17 µM
- GI50 [26]: 2.54 µM
- TGI [26]: 6.22 µM
- GI50 [27]: 2.61 µM
- TGI [27]: 9 µM
- GI50 [28]: 2.24 µM
- TGI [28]: 5.01 µM
- GI50 [29]: 2.95 µM
- TGI [29]: 14.5 µM
- GI50 [30]: 2.07 µM
- TGI [30]: 8.25 µM
- GI50 [31]: 2.93 µM
- TGI [31]: 11.6 µM
- GI50 [32]: 1.63 µM
- TGI [32]: 3.09 µM
- GI50 [33]: 2.99 µM
- TGI [33]: 14.5 µM
- GI50 [34]: 3.56 µM
- TGI [34]: 13.2 µM
- GI50 [35]: 3.72 µM
- TGI [35]: 13 µM
- GI50 [36]: 1.89 µM
- TGI [36]: 7.23 µM
- GI50 [37]: 3.49 µM
- TGI [37]: 11.8 µM
- GI50 [38]: 2.83 µM
- TGI [38]: 7.24 µM
- GI50 [39]: 2.98 µM
- TGI [39]: 12.5 µM
- GI50 [40]: 2.46 µM
- TGI [40]: 4.51 µM
- GI50 [41]: 1.98 µM
- TGI [41]: 4.14 µM
- GI50 [42]: 3.65 µM
- TGI [42]: 13.7 µM
- GI50 [43]: 2.09 µM
- TGI [43]: 13.4 µM
- GI50 [44]: 3.3 µM
- TGI [44]: 12.9 µM
- GI50 [45]: 1.99 µM
- TGI [45]: 4.22 µM
- GI50 [46]: 2.45 µM
- TGI [46]: 5.56 µM
- GI50 [47]: 2.34 µM
- TGI [47]: 4.47 µM
- GI50 [48]: 3.02 µM
- TGI [48]: 13.9 µM
- GI50 [49]: 2.6 µM
- TGI [49]: 6.35 µM
- GI50 [50]: 2.28 µM
- TGI [50]: 6.89 µM
- GI50 [51]: 2.89 µM
- TGI [51]: 10 µM
- GI50 [52]: 3.82 µM
- TGI [52]: 15.4 µM
- GI50 [53]: 2.11 µM
- TGI [53]: 4.74 µM

Structure (SMILES): CC(=O)Nc1ccc2[nH]c(C(=O)N3CC(CCl)c4c3cc(N)c3ccccc43)cc2c1 (stereo unspecified)
- TGI [1]: 0.0751 µM
- TGI [2]: 2.16 µM
- TGI [3]: 12.6 µM
- TGI [4]: < 0.0157 µM
- TGI [5]: > 100 µM
- TGI [9]: 0.0534 µM
- TGI [11]: < 0.0446 µM
- TGI [12]: 11.6 µM
- TGI [54]: < 0.01 µM
- TGI [16]: 1.08 µM
- TGI [17]: < 0.0255 µM
- TGI [55]: 0.335 µM
- TGI [18]: 0.0267 µM
- TGI [20]: 0.0554 µM
- TGI [21]: < 0.01 µM
- TGI [22]: < 0.01 µM
- TGI [56]: < 0.0238 µM
- TGI [27]: 2.01 µM
- TGI [28]: 3.48 µM
- TGI [31]: 0.0851 µM
- TGI [32]: 0.0761 µM
- TGI [34]: 2.18 µM
- TGI [35]: 0.259 µM
- TGI [36]: 0.0298 µM
- TGI [39]: > 100 µM
- TGI [40]: < 0.0192 µM
- TGI [41]: 0.0767 µM
- TGI [42]: > 100 µM
- TGI [44]: < 0.01 µM
- TGI [46]: < 0.01 µM
- TGI [47]: < 0.0309 µM
- TGI [48]: < 0.01 µM
- TGI [50]: < 0.01 µM
- TGI [52]: < 0.027 µM
- TGI [53]: < 0.0262 µM
